“And” between values parts separate entries of the source, which are not always exact repeats. Identical values can stand only once. Inconclusive results and toxic doses are left out. No stated cut-off is given here; in the data, active means T/C of 150% or more; inactive means T/C below 125%.
Tested on: L1210 leukemia ip in BDF1 mice, survival T/C
Assay: NCI In Vivo Anticancer Drug Screen. Data for tumor model L1210 Leukemia (intraperitoneal) in B6D2F1 (BDF1) mice
Details: endpoint: mean survival time, higher = longer survival
Outline: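 Mice bearing the transplanted tumor received compound or vehicle. Survival of the treated group was divided by that of the vehicle-treated control group to give the ratio.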

[1] = dose: 100.0 mg/kg/injection, schedule: Q01DX001 (ip), vehicle: saline
[2] = dose: 200.0 mg/kg/injection, schedule: Q01DX001 (ip), vehicle: saline
[3] = dose: 400.0 mg/kg/injection, schedule: Q01DX001 (ip), vehicle: saline
[4] = dose: 50.0 mg/kg/injection, schedule: Q01DX009 (ip), vehicle: saline with Tween-80
[5] = dose: 100.0 mg/kg/injection, schedule: Q01DX009 (ip), vehicle: saline with Tween-80
[6] = dose: 100.0 mg/kg/injection, schedule: Q04DX003 (ip), vehicle: saline with Tween-80
[7] = dose: 200.0 mg/kg/injection, schedule: Q04DX003 (ip), vehicle: saline with Tween-80
[8] = dose: 100.0 mg/kg/injection, schedule: Q01DX009 (ip), vehicle: Klucel (hydroxypropylcellulose) (HPC)
[9] = dose: 100.0 mg/kg/injection, schedule: Q04DX003 (ip), vehicle: Klucel (hydroxypropylcellulose) (HPC)
[10] = dose: 200.0 mg/kg/injection, schedule: Q01DX009 (ip), vehicle: Klucel (hydroxypropylcellulose) (HPC)
[11] = dose: 50.0 mg/kg/injection, schedule: Q04DX002 (ip), vehicle: saline
[12] = dose: 100.0 mg/kg/injection, schedule: Q01DX009 (ip), vehicle: saline
[13] = dose: 25.0 mg/kg/injection, schedule: Q01DX001 (ip), vehicle: Klucel (hydroxypropylcellulose) (HPC)
[14] = dose: 50.0 mg/kg/injection, schedule: Q01DX001 (ip), vehicle: Klucel (hydroxypropylcellulose) (HPC)
[15] = dose: 100.0 mg/kg/injection, schedule: Q01DX001 (ip), vehicle: Klucel (hydroxypropylcellulose) (HPC)
[16] = dose: 100.0 mg/kg/injection, schedule: Q01DX001 (ip), vehicle: saline with Tween-80
[17] = dose: 200.0 mg/kg/injection, schedule: Q01DX001 (ip), vehicle: saline with Tween-80
[18] = dose: 400.0 mg/kg/injection, schedule: Q01DX001 (ip), vehicle: saline with Tween-80

Measured: T/C

CCCCCCCCCCCc1n(Cc2ccccc2)cc[n+]1C
inactive: dose: 0.5 mg/kg/injection, schedule: Q01DX001 (ip), vehicle: saline 101 % of control | dose: 0.5 mg/kg/injection, schedule: Q01DX009 (ip), vehicle: acetone 111 % of control | dose: 1.0 mg/kg/injection, schedule: Q01DX001 (ip), vehicle: saline 95 % of control | dose: 1.0 mg/kg/injection, schedule: Q01DX009 (ip), vehicle: acetone 118 % of control | dose: 2.0 mg/kg/injection, schedule: Q01DX001 (ip), vehicle: saline 101 % of control | dose: 2.0 mg/kg/injection, schedule: Q04DX003 (ip), vehicle: saline 95 % of control | dose: 8.0 mg/kg/injection, schedule: Q01DX001 (ip), vehicle: saline 103 % of control

O=C(OCC1OC(n2ccc(=S)[nH]c2=O)C(OC(=O)c2ccccc2)C1OC(=O)c1ccccc1)c1ccccc1 (configuration not stated)
inactive: dose: 50.0 mg/kg/injection, schedule: Q01DX001 (ip), vehicle: saline 98 % of control | [1] 95 % of control | [2] 101 % of control | [3] 104 % of control

C=C1N(C)c2ccc(Cl)cc2C1(C)C
inactive: [4] 102 % of control | [5] 98 % of control | [6] 94 % of control | [7] 96 % of control

Cc1ccc(NC(=S)N2CCC(CCCC3CCN(C(=S)Nc4ccc(C)c(C)c4)CC3)CC2)cc1C
inactive: [8] 93 % of control | [9] 88 % of control | [10] 90 % of control | dose: 200.0 mg/kg/injection, schedule: Q04DX003 (ip), vehicle: Klucel (hydroxypropylcellulose) (HPC) 98 % of control | dose: 400.0 mg/kg/injection, schedule: Q01DX009 (ip), vehicle: Klucel (hydroxypropylcellulose) (HPC) 90 % of control | dose: 400.0 mg/kg/injection, schedule: Q04DX003 (ip), vehicle: Klucel (hydroxypropylcellulose) (HPC) 92 % of control

NC(=O)c1ccccc1OCc1ccccc1
inactive: dose: 75.0 mg/kg/injection, schedule: Q04DX003 (ip), vehicle: Klucel (hydroxypropylcellulose) (HPC) 97 % of control | dose: 150.0 mg/kg/injection, schedule: Q04DX003 (ip), vehicle: Klucel (hydroxypropylcellulose) (HPC) 99 % of control | dose: 300.0 mg/kg/injection, schedule: Q04DX003 (ip), vehicle: Klucel (hydroxypropylcellulose) (HPC) 91 % of control

CC(C)=CCC(C)c1ccccn1 (configuration not stated)
inactive: [1] 100 % of control | [2] 100 % of control | [3] 97 % of control

OCC1OC(n2cnc3c2nnn2ccnc32)C(O)C1O (configuration not stated)
inactive: dose: 12.5 mg/kg/injection, schedule: Q01DX009 (ip), vehicle: saline 98 % of control | dose: 12.5 mg/kg/injection, schedule: Q04DX002 (ip), vehicle: saline 108 % of control | dose: 25.0 mg/kg/injection, schedule: Q01DX009 (ip), vehicle: saline 101 % of control | dose: 25.0 mg/kg/injection, schedule: Q04DX002 (ip), vehicle: saline 108 % of control | dose: 50.0 mg/kg/injection, schedule: Q01DX009 (ip), vehicle: saline 98 % of control and 107 % of control and 123 % of control | [11] 104 % of control | dose: 75.0 mg/kg/injection, schedule: Q01DX009 (ip), vehicle: saline 100 % of control | dose: 100.0 mg/kg/injection, schedule: Q01DX005 (ip), vehicle: saline 114 % of control | [12] 115 % of control | dose: 115.0 mg/kg/injection, schedule: Q01DX009 (ip), vehicle: saline 104 % of control | dose: 170.0 mg/kg/injection, schedule: Q01DX009 (ip), vehicle: saline 112 % of control | dose: 200.0 mg/kg/injection, schedule: Q01DX005 (ip), vehicle: saline 107 % of control | dose: 200.0 mg/kg/injection, schedule: Q01DX009 (ip), vehicle: saline 120 % of control

CCCC(CCN(C)C)(CNC(=O)CN(CC)CC)c1cccc2ccccc12 (configuration not stated)
inactive: [11] 105 % of control | [12] 99 % of control | dose: 100.0 mg/kg/injection, schedule: Q04DX002 (ip), vehicle: saline 100 % of control | dose: 200.0 mg/kg/injection, schedule: Q04DX002 (ip), vehicle: saline 100 % of control

O=C(Nc1cc([N+](=O)[O-])cc([N+](=O)[O-])c1O)C(F)(F)F
inactive: [13] 102 % of control | [14] 96 % of control | [15] 100 % of control and 120 % of control | dose: 200.0 mg/kg/injection, schedule: Q01DX001 (ip), vehicle: Klucel (hydroxypropylcellulose) (HPC) 98 % of control

CC(C)N(/N=N/c1[nH]ncc1C(N)=O)C(C)C
inactive: [16] 104 % of control | [5] 108 % of control | [17] 104 % of control | dose: 200.0 mg/kg/injection, schedule: Q01DX009 (ip), vehicle: saline with Tween-80 98 % of control | [18] 93 % of control | dose: 400.0 mg/kg/injection, schedule: Q01DX009 (ip), vehicle: saline with Tween-80 95 % of control

Cc1ccc(C)c2c1[nH]c1c(C)c3ccncc3c(C)c12
inactive: dose: 25.0 mg/kg/injection, schedule: Q01DX Z (ip), vehicle: saline 103 % of control | dose: 50.0 mg/kg/injection, schedule: Q01DX Z (ip), vehicle: saline 103 % of control | [1] 100 % of control | dose: 100.0 mg/kg/injection, schedule: Q01DX Z (ip), vehicle: saline 112 % of control | [2] 96 % of control | [3] 103 % of control

O=C(COCC(=O)N/N=C/c1ccc(Cl)cc1Cl)N/N=C\c1cc(Cl)cc(Cl)c1
inactive: [8] 93 % of control | [10] 88 % of control

CC(C)n1cnc2nc[nH]c2c1=S
inactive: [13] 91 % of control | dose: 25.0 mg/kg/injection, schedule: Q04DX003 (ip), vehicle: Klucel (hydroxypropylcellulose) (HPC) 95 % of control | [14] 95 % of control | dose: 50.0 mg/kg/injection, schedule: Q04DX003 (ip), vehicle: Klucel (hydroxypropylcellulose) (HPC) 102 % of control | [15] 98 % of control | [9] 92 % of control

CCCC(C)CC(=O)CC(C)=O (configuration not stated)
inactive: [16] 93 % of control | [17] 95 % of control | [18] 95 % of control

OC1COC(Cl)C(O)C1O (configuration not stated)
inactive: dose: 25.0 mg/kg/injection, schedule: Q01DX009 (ip), vehicle: saline with Tween-80 96 % of control | [4] 97 % of control | [5] 94 % of control | [6] 91 % of control | [7] 88 % of control

O=C(COc1ccc([N+](=O)[O-])cc1Cl)Nc1ccccc1
inactive: dose: 100.0 mg/kg/injection, schedule: Q01DX009 (ip), vehicle: acetone 90 % of control | dose: 100.0 mg/kg/injection, schedule: Q04DX003 (ip), vehicle: acetone 95 % of control | dose: 200.0 mg/kg/injection, schedule: Q04DX003 (ip), vehicle: acetone 95 % of control | dose: 400.0 mg/kg/injection, schedule: Q04DX003 (ip), vehicle: acetone 94 % of control

CCOC(=O)c1ccc(N=NN(C)C2CCCCC2)cc1
inactive: dose: 100.0 mg/kg/injection, schedule: Q01DX001 (sc), vehicle: olive oil, sesame oil, peanut oil 102 % of control | dose: 100.0 mg/kg/injection, schedule: Q01DX009 (sc), vehicle: olive oil, sesame oil, peanut oil 104 % of control | dose: 100.0 mg/kg/injection, schedule: Q04DX003 (sc), vehicle: olive oil, sesame oil, peanut oil 102 % of control | dose: 200.0 mg/kg/injection, schedule: Q01DX001 (sc), vehicle: olive oil, sesame oil, peanut oil 102 % of control | dose: 200.0 mg/kg/injection, schedule: Q01DX009 (sc), vehicle: olive oil, sesame oil, peanut oil 116 % of control | dose: 200.0 mg/kg/injection, schedule: Q04DX003 (sc), vehicle: olive oil, sesame oil, peanut oil 103 % of control | dose: 400.0 mg/kg/injection, schedule: Q01DX001 (sc), vehicle: olive oil, sesame oil, peanut oil 98 % of control | dose: 400.0 mg/kg/injection, schedule: Q01DX009 (sc), vehicle: olive oil, sesame oil, peanut oil 104 % of control | dose: 400.0 mg/kg/injection, schedule: Q04DX003 (sc), vehicle: olive oil, sesame oil, peanut oil 100 % of control

c1ccc2c(C3CSC3)nncc2c1
inactive: [1] 97 % of control | [2] 97 % of control | [3] 94 % of control

Source: PubChem BioAssay AID248 (DTP/NCI, 2004)
